Measured values taken from publication PMC10436550, “Subacute toxicity evaluations of LPM3480392 in rats, a full µ-opioid receptor biased agonist” (Frontiers in Pharmacology, 2023).
Read-outs that look alike come from different tables or passages of the source.

Test: Toxicokinetics, plasma LPM3480392 after intravenous administration
Assay type: in vivo, Sprague Dawley (SD) rats
Conditions: for concentration at 2 min / AUC(0-t): Sprague-Dawley, rat, plasma; for concentration at 2 min: intravenous; for AUC(0-t): iv
Procedure: Blood samples from animals in LPM3480392 groups were collected at predose and 2 min, 30 min, 1 h and 4 h postdose of the 1st dosing on Days 1 and 28; at 2 min and 4 h postdose of the 2nd dosing on Days 1 and 28; at 2 min, 1 h and 4 h postdose the 3rd dosing on Days 1 and 28. Animals in control group were sampled at predose and 2 min postdose of the 1st dosing on Days 1 and 28. Approximately 0.36 mL of blood was collected from the jugular vein of surviving TK animals at each time point. Whole blood samples were anticoagulated with EDTA-K2 and centrifuged at 2°C–8°C and 1800 × g for 10 min. The harvested plasma was stored below −66°C before the analysis. LC-MS/MS methods (liquid chromatograph/mass spectrometer) were used to detect concentrations of LPM3480392 at each time point. TK parameters (AUC, Cmax, Tmax) were calculated by Phoenix WinNonlin (Pharsight) 8.2. The detection instruments include ultra-performance liquid chromatography (Waters, United States ACQUITY UPLC I -CLASS) and triple quadrupole tandem mass spectrometer (Waters, United States, Xevo TQ-S).

Fc1ccc([C@]2(CCNCc3cccc(Cl)c3)CCO[C@]3(CCOC3)C2)nc1 [LPM3480392]
Accumulation after 28-day repeated dosing (0.6–2.4 mg/kg/day): No accumulation
Gender difference of mean AUC0–12h in plasma (0.6–2.4 mg/kg/day): no apparent gender difference
concentration at 2 min (both sexes, 0.6 mg/kg/day, 0.6 mg/kg/day iv, 1st dosing day, F + M, read-out: C2min (The 1st dosing)): 88.3 ± 18.8 ng/mL
concentration at 2 min (both sexes, 0.6 mg/kg/day, 0.6 mg/kg/day iv, 1st dosing day, F + M, read-out: C2min (The 2nd dosing)): 68.4 ± 12.8 ng/mL
concentration at 2 min (both sexes, 0.6 mg/kg/day, 0.6 mg/kg/day iv, 1st dosing day, F + M, read-out: C2min (The 3rd dosing)): 60.1 ± 10.4 ng/mL
concentration at 2 min (both sexes, 0.6 mg/kg/day, 0.6 mg/kg/day iv, 28th dosing day, F + M, read-out: C2min (The 1st dosing)): 87.2 ± 14.7 ng/mL
concentration at 2 min (both sexes, 0.6 mg/kg/day, 0.6 mg/kg/day iv, 28th dosing day, F + M, read-out: C2min (The 2nd dosing)): 75.4 ± 10.2 ng/mL
concentration at 2 min (both sexes, 0.6 mg/kg/day, 0.6 mg/kg/day iv, 28th dosing day, F + M, read-out: C2min (The 3rd dosing)): 73.9 ± 10.9 ng/mL
concentration at 2 min (both sexes, 1.2 mg/kg/day, 1.2 mg/kg/day iv, 1st dosing day, F + M, read-out: C2min (The 1st dosing)): 175 ± 18.6 ng/mL
concentration at 2 min (both sexes, 1.2 mg/kg/day, 1.2 mg/kg/day iv, 1st dosing day, F + M, read-out: C2min (The 2nd dosing)): 155 ± 29.4 ng/mL
concentration at 2 min (both sexes, 1.2 mg/kg/day, 1.2 mg/kg/day iv, 1st dosing day, F + M, read-out: C2min (The 3rd dosing)): 148 ± 27 ng/mL
concentration at 2 min (both sexes, 1.2 mg/kg/day, 1.2 mg/kg/day iv, 28th dosing day, F + M, read-out: C2min (The 1st dosing)): 179 ± 23.2 ng/mL
concentration at 2 min (both sexes, 1.2 mg/kg/day, 1.2 mg/kg/day iv, 28th dosing day, F + M, read-out: C2min (The 2nd dosing)): 140 ± 31 ng/mL
concentration at 2 min (both sexes, 1.2 mg/kg/day, 1.2 mg/kg/day iv, 28th dosing day, F + M, read-out: C2min (The 3rd dosing)): 149 ± 24.6 ng/mL
concentration at 2 min (both sexes, 2.4 mg/kg/day, 2.4 mg/kg/day iv, 1st dosing day, F + M, read-out: C2min (The 1st dosing)): 330 ± 27.6 ng/mL
concentration at 2 min (both sexes, 2.4 mg/kg/day, 2.4 mg/kg/day iv, 1st dosing day, F + M, read-out: C2min (The 2nd dosing)): 290 ± 23.1 ng/mL
concentration at 2 min (both sexes, 2.4 mg/kg/day, 2.4 mg/kg/day iv, 1st dosing day, F + M, read-out: C2min (The 3rd dosing)): 229 ± 43.6 ng/mL
concentration at 2 min (both sexes, 2.4 mg/kg/day, 2.4 mg/kg/day iv, 28th dosing day, F + M, read-out: C2min (The 1st dosing)): 351 ± 61.7 ng/mL
concentration at 2 min (both sexes, 2.4 mg/kg/day, 2.4 mg/kg/day iv, 28th dosing day, F + M, read-out: C2min (The 2nd dosing)): 323 ± 89.2 ng/mL
concentration at 2 min (both sexes, 2.4 mg/kg/day, 2.4 mg/kg/day iv, 28th dosing day, F + M, read-out: C2min (The 3rd dosing)): 320 ± 34.2 ng/mL
AUC(0-t) (both sexes, 0.6 mg/kg/day, 0.6 mg/kg/day iv, 1st dosing day, F + M, read-out: AUC0–12h): 315 ± 43.7 ng·h/mL
AUC(0-t) (both sexes, 0.6 mg/kg/day, 0.6 mg/kg/day iv, 28th dosing day, F + M, read-out: AUC0–12h): 349 ± 38.2 ng·h/mL
AUC(0-t) (both sexes, 0.6 mg/kg/day, female + male, 0.6 mg/kg/day, Day 1, read-out: Mean AUC0–12h): 315 ng·h/mL
AUC(0-t) (both sexes, 0.6 mg/kg/day, female + male, 0.6 mg/kg/day, Day 28, read-out: Mean AUC0–12h): 349 ng·h/mL
AUC(0-t) (both sexes, 1.2 mg/kg/day, 1.2 mg/kg/day iv, 1st dosing day, F + M, read-out: AUC0–12h): 663 ± 114 ng·h/mL
AUC(0-t) (both sexes, 1.2 mg/kg/day, 1.2 mg/kg/day iv, 28th dosing day, F + M, read-out: AUC0–12h): 680 ± 74.5 ng·h/mL
AUC(0-t) (both sexes, 1.2 mg/kg/day, female + male, 1.2 mg/kg/day, Day 1, read-out: Mean AUC0–12h): 663 ng·h/mL
AUC(0-t) (both sexes, 1.2 mg/kg/day, female + male, 1.2 mg/kg/day, Day 28, read-out: Mean AUC0–12h): 680 ng·h/mL
AUC(0-t) (both sexes, 2.4 mg/kg/day, 2.4 mg/kg/day iv, 1st dosing day, F + M, read-out: AUC0–12h): 1250 ± 93.6 ng·h/mL
AUC(0-t) (both sexes, 2.4 mg/kg/day, 2.4 mg/kg/day iv, 28th dosing day, F + M, read-out: AUC0–12h): 1490 ± 169 ng·h/mL
AUC(0-t) (both sexes, 2.4 mg/kg/day, female + male, 2.4 mg/kg/day, Day 1, read-out: Mean AUC0–12h): 1250 ng·h/mL
AUC(0-t) (both sexes, 2.4 mg/kg/day, female + male, 2.4 mg/kg/day, Day 28, read-out: Mean AUC0–12h): 1490 ng·h/mL
Mean AUC0–12h ratio, Day 28 and Day 1 (female + male, 1.2 mg/kg/day): 1.0
Mean AUC0–12h ratio, Day 28 and Day 1 (female + male, 2.4 mg/kg/day): 1.2
concentration at 2 min (female, 0.6 mg/kg/day, 0.6 mg/kg/day iv, 1st dosing day, F, read-out: C2min (The 1st dosing)): 78.4 ± 10.9 ng/mL
concentration at 2 min (female, 0.6 mg/kg/day, 0.6 mg/kg/day iv, 1st dosing day, F, read-out: C2min (The 2nd dosing)): 66.2 ± 12.4 ng/mL
concentration at 2 min (female, 0.6 mg/kg/day, 0.6 mg/kg/day iv, 1st dosing day, F, read-out: C2min (The 3rd dosing)): 55.5 ± 8.94 ng/mL
concentration at 2 min (female, 0.6 mg/kg/day, 0.6 mg/kg/day iv, 28th dosing day, F, read-out: C2min (The 1st dosing)): 90.1 ± 8.8 ng/mL
concentration at 2 min (female, 0.6 mg/kg/day, 0.6 mg/kg/day iv, 28th dosing day, F, read-out: C2min (The 2nd dosing)): 73 ± 12.6 ng/mL
concentration at 2 min (female, 0.6 mg/kg/day, 0.6 mg/kg/day iv, 28th dosing day, F, read-out: C2min (The 3rd dosing)): 68.5 ± 11.8 ng/mL
concentration at 2 min (female, 1.2 mg/kg/day, 1.2 mg/kg/day iv, 1st dosing day, F, read-out: C2min (The 1st dosing)): 181 ± 24.8 ng/mL
